Data taken from paper PMC12155980, “Design, Synthesis, and Biological Evaluations of a Novel Resveratrol-Type Analogue Against VEGF” (Molecules, 2025).

Key:
VEGF/VEGFR2 complex = assay: Western blot, phosphorylation of VEGF/VEGFR2 in HUVECs; assay type: cell-based, human; details: VEGF 10 ng/mL
Experimental: (§1) In light of the investigation above, we further evaluated the anti-VEGF efficacy of RE-1 in cell studies. VEGFR2 was previously identified as the main receptor of VEGF protein. […] ERK1/2, a downstream signal factor, was subsequently stimulated and phosphorylated after the activation of VEGFR2 [17].
(A) VEGF was added at a concentration of 10 ng/mL, and avastin at 200 µg/mL was employed as the positive control. (B) The intensities of each band were quantified and analyzed with software Image Lab (6.1 version). Values were calculated as the percentage of changes compared with blank control (only medium), in mean ± SD, n = 4. * p < 0.05; compared with the control group.
(§2) HUVECs were seeded onto 12-well plates at a density of 1.5 × 10^4 cells/mL and subjected to serum starvation with a serum-free medium overnight. After treatment with various samples, the cells were directly lysed with 200 μL 2× sodium dodecyl sulfate polyacrylamide gel electrophoresis (SDS-PAGE) lysis buffer (100 mM Tris-Cl, pH 6.8, 8% SDS, 0.2% bromophenol blue, 20% glycerol, 400 mM β-mercaptoethanol). The lysates were obtained and denatured at 85 °C for 15 min. Afterwards, the samples were subjected to SDS-PAGE in a 10% gel. Then, 5% skim milk in Tris-buffered saline of pH 7.4 with 0.1% Tween-20 (as TBST) was used for blocking. […] The intensities of each band were quantified and analyzed with software Image Lab.

HaCaT cells [1] = assay: VEGF-mediated intracellular ROS formation (DCFH-DA); assay type: cell-based, human; details: 0.3 to 3 µM
Experimental: VEGF acts as an inducer in reactive oxygen species (ROS) formation; such an interaction plays an essential role in the activation of VEGFR2-mediated pathways and downstream cell migration.
Figure 7 RE-1 attenuates VEGF-mediated ROS formation in HaCaT cells. (A) HaCaT cells were seeded onto coverslips and mounted with Prolong Gold Antifade Reagent with DAPI. Pictures of cells were captured with confocal microscopy Leica SP8 (Leica, Germany). (B) The intensities of fluorescent signals by DCFH-DA were quantified using the software Leica Application Suite (LAS, 4.12 version) X. Values were calculated as percentage of changes compared with the blank control (only medium), in mean ± SD, n = 4. * p < 0.05; compared with the control group.
Intracellular ROS accumulation was measured with a fluorescent ROS indicator DCFH-DA. Procedures were conducted as described previously. In brief, HaCaT cells were seeded onto coverslips at a density of 1 × 10^5 cells/mL. Following drug treatments, a DCFH-DA probe diluted in serum-free medium at 20 μM was introduced to the cells. The cells were incubated with DCFH-DA for 20 min in a 37 °C incubator. PBS wash was followed to rinse off the residual DCFH-DA. Following this, the cells were fixed with 4% paraformaldehyde (PFA) in PBS for 15 min at room temperature. The PFA was washed off with a PBS wash twice. Coverslips with fixed cells were mounted with Prolong Gold Antifade Reagent with DAPI (Cell Signalling Technology, Boston, MA, USA). Pictures of cells were captured with confocal microscopy Leica SP8 system at 20× magnification (Leica, Wetzlar, Germany). The intensities of fluorescent signals by DCFH-DA were determined through the software Leica Application Suite (LAS) X (Leica Microsystems, Wetzlar, Germany).

VEGF165 protein = molecular target: T1, VEGF165 protein (Homo sapiens, UniProt P15692); assay: SPR binding affinity assay (Biacore T200); details: immobilized VEGF165, analytes 1 to 30 µM, estimated, read-out: dissociation constant (Kd)
T1 sequence (P15692 1-191 isoform P15692-4): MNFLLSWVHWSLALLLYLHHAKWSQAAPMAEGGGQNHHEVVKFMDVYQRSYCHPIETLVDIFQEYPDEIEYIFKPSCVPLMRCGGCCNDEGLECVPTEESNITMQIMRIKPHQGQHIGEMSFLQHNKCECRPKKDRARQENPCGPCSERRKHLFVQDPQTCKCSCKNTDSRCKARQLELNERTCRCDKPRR
Experimental: In parallel, an ultrafiltration assay was conducted in the presence and absence of VEGF protein (Figure 2A). […] Subsequently, SPR investigation was performed using Biacore T200 (Cytiva, Washington, DC, USA) to detect the binding affinities of RE-1 to the targeted protein. […] When the binding activities between analytes and the protein were detected, response units (RUs) could be calculated and obtained accordingly.
Binding affinities between analytes and VEGF protein were determined using a Biacore T200 (Cytiva, Washington, DC, USA) with a GE Series dextran-coated (CM5) sensor chip. Specifically, the HBS-T mixture (150 mM NaCl, 10 mM Hepes, 0.05% polysorbate 20, 3.4 mM EDTA, 5% DMSO, pH 7.4) was selected as the operating buffer at 25 °C. The immobilizing VEGF protein was covalently placed onto the chip at the sensor surface through amide coupling reagent—EDC/NHS {1-ethyl-3-[3-(dimethylamino) propyl]carbodiimide hydrochloride)/N-hydroxysuccinimide}. Following surface activation, the VEGF protein was dissolved using a coupling buffer (0.1 M acetate buffer, pH 4.5) and placed at the surface of the sensor chip, until the RU (resonance unit) signal of the VEGF protein was detected and reached 6500 RU. To remove unreacted VEGF protein, the chip was washed and subsequently reacted with 10 mM glycine-HCl at pH 1.5. […] Data were further analyzed utilizing GE Biacore T200 control software.

[2] = Stability test by HPLC (intra- and inter-day variability); assay type: physicochemical; details: for Intra-day RSD: n = 6; for Intra-day Mean Peak Area: n = 6, HPLC 210 nm; for Inter-day Mean Peak Area / Inter-day RSD: n = 6, five successive days
VEGF protein = molecular target: T2, VEGF protein (Homo sapiens, UniProt P15692); assay: Ultrafiltration binding assay with HPLC quantification; details: ultrafiltration in presence and absence of VEGF protein
T2 sequence (P15692 1-191 isoform P15692-4): T1 sequence (P15692 1-191 isoform P15692-4)

HUVECs [3] = assay: VEGF-induced cell proliferation (MTT); assay type: cell-based, human; details: VEGF 10 ng/mL, 48 h, 0.1-10 µM
Experimental: (§3) VEGF has been reported as a crucial mediator in human umbilical vein endothelial cells (HUVECs).
HUVECs were incubated in the presence of VEGF (10 ng/mL) with or without drug treatments for 48 h. […] The absorbance of the samples at 570 nm was measured using a microplate reader (Thermo Fisher Scientific, Waltham, MA, USA). * p < 0.05; ** p < 0.01; compared with the control group.
First, 5 × 10^4 cells/mL […] cells were seeded on a 96-well plate. After 24 h incubation, 100 μL VEGF at a concentration of 10 ng/mL with various concentrations of analytes were added to the mixture, followed by the addition of 10 μL of MTT solution (5 mg/mL). Th blank group was set up without any drug treatments, while avastin was utilized as a positive control. The mixture was incubated at 37 °C for 4 h before 150 μL DMSO was employed to dissolve formazan salt formed during the reaction. The sample was collected and read under a microplate reader (Thermo Fisher Scientific) at a wavelength of 570 nm. Proliferation values were calculated as follows: cell proliferation (%) = (experimental value − background value)/(blank value − background value) × 100%.

HaCaT cells [4] = assay: MTT cell viability (toxicity) in HaCaT cells; assay type: cell-based, human; details: concentrations up to 100 µM
ERK1/2 = assay: Western blot, phosphorylation of downstream ERK1/2 in HUVECs; assay type: cell-based, human; details: in the presence of VEGF
Excerpt: as §1
(A) Cell treatment was the same as in Figure 3. […] Antibodies in use included: anti-rabbit phospho-p44/42 MAPK, anti-rabbit p44/42 MAPK (CST), and anti-rabbit horseradish peroxidase (HRP) secondary antibody. (B) The intensities of each band were quantified and analyzed with the software Image Lab. Values were calculated as percentage of changes compared with a blank control (only medium), in mean ± SD, n = 4. * p < 0.05; compared with the control group.
as §2, with “gel.” for “gel. Then, 5% skim milk in Tris-buffered saline of pH 7.4 with 0.1% Tween-20 (as TBST) was used for blocking.”

HUVECs [5] = assay: Wound closure assay; assay type: cell-based, human; details: VEGF 10 ng/mL, 0.3 µM to 3 µM, 20 h
Experimental: as §3
Figure 6 RE-1 reduces VEGF-regulated wound recovery in HUVECs. […] (D) Quantification of wound recovery. Values were calculated as percentage of changes compared with the blank control (only medium), in mean ± SD, n = 4. * p < 0.05; ** p < 0.01; compared with the control group.
A wound closure assay was performed on cultured HUVECs to study cell migration in vitro. Procedures were described previously by Guo et al.. Briefly, HUVECs were seeded onto a 12-well plate at a density of 3 × 10^5 cells/well, and treatments were added when the cells grew to full confluence. The cells were washed with PBS and treated with drugs. The photos of each cell scrape at 0 (At0) and 20 h (At20) were captured with a microscope and imaging software (Zen, https://www.zeiss.com/microscopy/en/products/software/zeiss-zen.html, accessed on 19 January 2025) at a 10× magnification. The software TScratch 1.0 (CSE Lab, Zurich, Switzerland) was used to determine the open area of each scrape photo at various timepoints. Quantification of the recovery rate of wound was calculated according to the following equation: Wound closure (%) = (At0 − At20)/[…] × 100%.

[6] = Caco-2 transepithelial permeability assay; assay type: in vitro ADME; details: human; for Papp at 0.3 µM: Caco-2, sample tested at 0.3 µM; for Papp at 3 µM: Caco-2, sample tested at 3 µM
HUVECs [7] = assay: MTT cell viability (toxicity) in HUVECs; assay type: cell-based, human; details: cultured HUVECs, concentrations up to 100 µM

## COc1cc(/C=C/c2ccc(OCCCn3c4c(c5cc(Br)ccc53)CCCC4n3cccc3)cc2)cc(OC)c1 (centres unmarked) [RE-1]
VEGF/VEGFR2 complex
  disruption of phosphorylation of VEGF/VEGFR2: able to disrupt the phosphorylation and binding activity of VEGF/VEGFR2 complex
HaCaT cells [1]
  inhibition of VEGF-mediated ROS formation: better inhibitory performances than resveratrol
VEGF165 protein
  Kd: ~8 µM
[2]; acidic solution
  Intra-day RSD: 5.84%
  Intra-day Mean Peak Area: 1316.9
  Inter-day Mean Peak Area: 1403.9
  Inter-day RSD: 8.83%
[2]; basic solution
  Intra-day RSD: 5.81%
  Intra-day Mean Peak Area: 755.8
  Inter-day Mean Peak Area: 747.2
  Inter-day RSD: 9.35%
[2]; neutral solution
  Intra-day RSD: 4.93%
  Intra-day Mean Peak Area: 1002.8
  Inter-day Mean Peak Area: 1046.6
  Inter-day RSD: 9.21%
VEGF protein
  binding degree to the protein: ~ 32%
HUVECs [3]
  inhibition of VEGF-regulated cell proliferation: significant inhibitory activity
HaCaT cells [4]
  toxicity (apoptosis) in MTT assay: no significant apoptosis
ERK1/2
  inhibition of ERK1/2 phosphorylation: found to block ERK1/2 phosphorylation
HUVECs [5]
  inhibition of VEGF-regulated wound closure: higher efficacy than resveratrol
[6]; Caco-2, concentrations from 0.3 µM to 3 µM
  Papp: 15.8 to 20.9 ×10⁻⁶ cm/s
[6]
  Papp at 0.3 µM: 15.8 ×10⁻⁶ cm/s
  Papp at 3 µM: 20.9 ×10⁻⁶ cm/s
HUVECs [7]
  toxicity (apoptosis) in MTT assay: no significant apoptosis

## Oc1ccc(/C=C/c2cc(O)cc(O)c2)cc1 [resveratrol]
VEGF/VEGFR2 complex
  disruption of phosphorylation of VEGF/VEGFR2: able to disrupt the phosphorylation and binding activity of VEGF/VEGFR2 complex
HaCaT cells [1]
  inhibition of VEGF-mediated ROS formation: inhibitory effectiveness
VEGF165 protein
  Kd: ~12 µM
HUVECs [3]
  inhibition of VEGF-regulated cell proliferation: decent inhibition
HaCaT cells [4]
  toxicity (apoptosis) in MTT assay: mild apoptosis at relatively high concentrations
ERK1/2
  inhibition of ERK1/2 phosphorylation: found to block ERK1/2 phosphorylation
HUVECs [5]
  inhibition of VEGF-regulated wound closure: significant inhibitions to wound closure
[6]
  Papp at 0.3 µM: 15.1 ×10⁻⁶ cm/s
  Papp at 3 µM: 18.2 ×10⁻⁶ cm/s
HUVECs [7]
  toxicity (apoptosis) in MTT assay: mild apoptosis at relatively high concentrations

## avastin: avastin (bevacizumab), positive control against VEGF
HaCaT cells [1]
  inhibition of VEGF-mediated ROS formation: able to reduce such an induction
